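Briefly, cells in 96-well plates were exposed to five compound concentrations for 48 h, and endpoints were estimated by linear interpolation. Definition used: TGI = concentration required for complete inhibition of growth.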
Columns and labels:
Assay in all cases: DTP human tumour cell line panel, 48 h
A549 NSCLC = tested on: A549 NSCLC
BT-549 breast = tested on: BT-549 breast
HOP-62 NSCLC = tested on: HOP-62 NSCLC
HT29 colon = tested on: HT29 colon
MDA-MB-435 = tested on: MDA-MB-435
NCI/ADR-RES ovarian = tested on: NCI/ADR-RES ovarian
RPMI-8226 leukemia = tested on: RPMI-8226 leukemia
SF-268 CNS = tested on: SF-268 CNS
SK-MEL-28 melanoma = tested on: SK-MEL-28 melanoma
HL-60(TB) leukemia = tested on: HL-60(TB) leukemia

SMILES	TGI (A549 NSCLC) [µM]	TGI (BT-549 breast) [µM]	TGI (HOP-62 NSCLC) [µM]	TGI (HT29 colon) [µM]	TGI (MDA-MB-435) [µM]	TGI (NCI/ADR-RES ovarian) [µM]	TGI (RPMI-8226 leukemia) [µM]	TGI (SF-268 CNS) [µM]	TGI (SK-MEL-28 melanoma) [µM]	TGI (HL-60(TB) leukemia) [µM]
CCCSC1=N/C(=C\c2ccco2)C(=O)N1	> 100	> 100	> 100	> 100	> 100	> 100	> 100	> 100	> 100	–
COc1ccc(Sc2ccccc2[N+](=O)[O-])cc1	> 100	–	> 100	59.9	–	–	> 100	> 100	46.4	20.8
CO/C(N)=C(\C#N)N=Cc1cccs1	> 100	> 100	> 100	> 100	73.3	> 100	–	> 100	> 100	65.4
FC(F)(Sc1nc2ccccc2[nH]1)c1nc2ccccc2o1	> 100	> 100	> 100	> 100	> 100	> 100	> 100	> 100	> 100	–
CNC(=O)N(C)C(=O)c1ccccc1C(=O)N(C)C(=O)NC	> 10	> 10	> 10	> 10	–	> 10	> 10	> 10	> 10	> 10
CCCCN1/C(=N/Nc2n[nH]c(=O)c3ccccc23)SCC1c1ccc(Cl)cc1 (stereo unspecified)	> 100	–	18.5	96.1	31.9	47	> 100	43.9	47.1	> 100
CCCCCNC(=O)OC1CCn2c1nc1c2C(=O)C(C)=C(N2CC2)C1=O (stereo unspecified)	2.57	3.08	–	2.77	3.13	10.4	> 100	4.84	2.78	> 100
CCCCC(C)(C/C=C/[C@@H]1[C@@H](C(O)CCCCCC(=O)OC)C(=O)C[C@H]1O[Si](C)(C)C(C)(C)C)O[Si](C)(C)C (stereo partly specified)	> 100	> 100	> 100	> 100	> 100	> 100	> 100	> 100	> 100	–
COc1ccc(N=C(SSC(=Nc2ccc(OC)cc2)c2ccc([N+](=O)[O-])o2)c2ccc([N+](=O)[O-])o2)cc1	> 100	3.22	6.41	5.53	3.93	–	> 100	5.4	> 19.7	7.07
COc1ccc(-c2cc(-c3ccc(Nc4ccnc5cc(C(F)(F)F)ccc45)cc3)nc(N)c2C#N)c2ccccc12	> 100	> 100	> 100	–	> 100	> 100	> 100	> 100	–	> 100
CCOC(=O)C1(NC(=O)OC(C)(C)C)CCc2[nH]oc(=O)c2C1 (stereo unspecified)	> 100	> 100	> 100	> 100	> 100	> 100	> 100	–	> 100	> 100

Reference: PubChem BioAssay (NCI)
